Patent US12144791B2, “KRAS agonists, pharmaceutical compositions, and uses in managing cancer” (Emory University, priority 2019, dated 2024)

Experiments:
[1] = test system: A549 and H157; assay: Annexin V/PI apoptosis, KRA-533 alone or with 3-MA; assay type: cell-based, human; settings: 48 h, in combination with KRA-533
Method: To determine whether autophagy plays a role in apoptosis induced by KRA-533, apoptosis was measured by FACS analysis of Annexin V/PI staining following treatments of A549 and H157 with KRA533 alone or in combination with autophagy inhibitor 3-MA for 48 h.

[2] = test system: A549 and H157 cells; assay: Western blot of autophagy marker p62 with or without chloroquine; assay type: cell-based, human; settings: 48 h, in combination with KRA-533
Method: To assess whether the autophagy inhibitor regulates KRA-533-induced autophagy formation, A549 and H157 cells were treated with KRA-533 in the absence or presence of autophagy inhibitor chloroquine for 48 h, followed by Western blot analysis of the autophagy marker p62.

SMILES | KRA-533-induced apoptosis, 3-MA added [1] | p62 expression, chloroquine added to KRA-533 [2]
Cn1cnc(N)c2ncnc1-2 [3-MA, 3-methyladenine] | enhanced KRA-533-induced apoptosis | –
CCN(CC)CCCC(C)Nc1ccnc2cc(Cl)ccc12 (centres unmarked) [chloroquine, reference compound] | – | restored p62 expression by blocking KRA-533-induced p62 degradation
